The values below come from patent US20050038113A1, “Valproic acid and derivatives for the combinatorial therapeutic treatment of human cancers and for the treatment of tumor metastasis and minimal residual disease” (G2M Cancer Drugs AG, priority 2001, published 2005).

The subject of test [1] is Renca-lacZ/EGFR renal carcinoma cells. Kind of test: MTT cell viability assay. The format is cell-based, Mouse. As to conditions: 40 h. An excerpt: (§1) Renal cell carcinoma (Renca) cells stably transfected with plasmid pZeoSV2/lacZ encoding E. coli β-galactosidase, and either with plasmids pSV2ErbB2N and pSV2neo encoding c-erbB2 and neomycin resistance (Renca-lacZ/ErbB2) (Maurer-Gebhard et al., Cancer Res. 58: 2661-2666, 1998), or plasmids pLTR-EGFR or pLTR-EGFRvIII and pSV2neo encoding epidermal growth factor (EGF) receptor, the oncogenically activated EGF receptor variant EGFRvIII, and neomycin resistance (Renca-lacZ/EGFR and Renca-lacZ/EGFRvIII) (Schmidt et al., Oncogene 18: 1711-1721, 1999) were grown in RPMI-1640 medium supplemented with 8% FBS, 2 mM L-glutamine, 100 U/ml penicillin, 100 μg/ml streptomycin, 0.25 mg/ml Zeocin and 0.48 mg/ml G418.
(§2) Tumor cells were seeded in 96 well plates at a density of 1×10^4 cells/well in normal growth medium. SKBR3, A431 and SKOV3 cells were treated for 40 h with valproic acid at a final concentration of 3 mM, or 10 ng/ml of the recombinant anti-ErbB2 single chain antibody-toxin scFv(FRP5)-ETA (Wels et al., Cancer Res. 52: 6310-6317, 1992), or 10 ng/ml of the recombinant anti-EGF receptor single chain antibody-toxin scFv(14E1)-ETA (Schmidt et al., Brit. J. Cancer 75: 1575-1584, 1997), or a combination of valproic acid with either scFv(FRP5)-ETA or scFv(14E1)-ETA at the same concentrations. Renca-lacZ/ErbB2, Renca-lacZ/EGFR and Renca-lacZ/EGFRvIII cells were treated for 40 h with valproic acid at a final concentration of 1 mM, or 10 ng/ml of the recombinant anti-ErbB2 single chain antibody-toxin scFv(FRP5)-ETA, or 1 ng/ml of the recombinant anti-EGF receptor single chain antibody-toxin scFv(14E1)-ETA, or a combination of valproic acid with either scFv(FRP5)-ETA or scFv(14E1)-ETA at the same concentrations. Control cells were grown in the absence of valproic acid or antibody-toxins. Ten μl of 10 mg/ml 3-(4,5-dimethylthiazole-2-yl)-2,5 diphenyltetrazolium bromide (MTT) (Sigma, Deisenhofen, Germany) in PBS were added to each well and the cells were incubated for another 3 h. Cells were lysed by the addition of 90 μl of lysis buffer (20% SDS in 50% dimethyl formamide, pH 4.7). After solubilization of the formazan product, the absorption at 590 nm was determined in a microplate reader (Dynatech, Denkendorf, Germany) and the relative amount of viable cells in comparison to cells cultured without the addition of valproic acid or antibody-toxins was calculated.
A general note: Tetrazolium assays rely on reduction of a dye to a coloured formazan, in cell work by metabolically active cells.

The subject of test [2] is Renca-lacZ/EGFRvIII renal carcinoma cells. As to the kind of experiment: MTT cell viability assay. The format is cell-based, Mouse. As to conditions: 40 h.
Source text: as §1, §2

The test system of test [3] is Renca-lacZ/ErbB2 renal carcinoma cells. Kind of test: MTT cell viability assay. The format is cell-based, Mouse. As to conditions: 40 h.
Source text: as §1, §2

Test [4] has as its system Kasumi-1 cells. As to the kind of experiment: viability, cell cycle and myeloid differentiation (morphology, NBT dye reduction). The class given is cell-based, human. The protocol:
Cell numbers were evaluated and quantified by direct cell counting (trypan blue dye exclusion method) using a hematocytometer chamber and light microscopy. Morphological examination was performed by Wright-Giemsa stained cytospins; nitroblue tetrazolium (NBT) dye reduction assay, respectively. Each point represents the mean of a set of data determined in triplicate (Example 15).
Cases were classified according to the French-American-British (FAB) classification (Bennett et al., Ann Intern Med 103, 1985). Cytogenetic analysis and RT-PCR tests were performed to rule out the presence of the APL associated fusion genes according to standard methods as described (Mandelli et al., Blood 90, 1997; Mancini et al., Br J Haematol. 91, 1995; Grimwade et al., Blood 90, 1999).

The mark [5] stands for this setting: 1 mM valproic acid + 1 ng/ml scFv(14E1)-ETA.
Setting [6] is: single reagent, valproic acid 1 mM, scFv(14E1)-ETA 1 ng/ml.

Consider `CCCC(CCC)C(=O)O` [VPA, 2-propylpentanoic acid], for which the “cell viability, combination treatment” value in test [1] (setting [5]), in test [2] (setting [5]) and in test [3] (1 mM valproic acid + 10 ng/ml scFv(FRP5)-ETA) was “pronounced additive therapeutic effect” each time. Also, the cell viability entry in test [1] (setting [6]) was “inhibit the viability”; in test [2] (setting [6]), “inhibit the viability”; in test [3] (single reagent, valproic acid 1 mM, scFv(FRP5)-ETA 10 ng/ml), “inhibit the viability”. Also, the myeloid differentiation entry was “partial myeloid differentiation” in test [4] (VPA as a single agent); “complete and thus synergistic myeloid differentiation” in test [4] (VPA in combination with RA). Moreover, the “positive cells in the NBT dye reduction assay” value in test [4] (VPA in combination with RA) is “up to 65%”. The viability entry in test [4] (VPA in combination with RA) is “additive effect”. Moreover, the cell cycle analysis entry in test [4] (combination of VPA plus RA compared to VPA or RA alone) is given as “enhanced cell cycle shift into G1 arrest”.
